# Laboratory results from PMC11579541, “In vitro, in vivo, and in silico approaches for evaluating the preclinical DMPK profiles of ammoxetine, a novel chiral serotonin and norepinephrine reuptake inhibitor” (Frontiers in Pharmacology, 2024).
# Key:
# [1] = tested on: MDCK-MDR1 cells; assay: Bidirectional permeability measurements in MDCK-MDR1 monolayers; assay type: in vitro ADME, canine; conditions: from ER and verapamil effect
# Experimental: MDCK-MDR1 cells at passage 17 were cultured in DMEM supplemented with 10% FBS, 1% glutamine, 100 U/mL penicillin/streptomycin, 1% NEAA, and 1 mmol/L sodium pyruvate. The cells were incubated overnight at 37°C with 5% CO2 and a relative humidity of 90%. Once the cells reached approximately 80% confluence, they were treated with a 0.25% trypsin/EDTA solution to dissociate the cells. Subsequently, the cells were seeded at a density of 5 × 10^5 cells/cm^2 in Millicell-96 well plates (Millipore, Burlington, USA). Prior to conducting the experiments, the integrity of the cell monolayer was confirmed by measuring transepithelial electrical resistance (TEER) using a Millicell ERS® meter (Millipore, Burlington, USA). A TEER value greater than 400 Ω cm^2 was required to ensure the formation and preservation of tight junctions.
# Cell monolayers were preincubated with HBSS for 15 min at 37°C. To measure the A→B (apical side to basolateral side of monolayer) transporter, 400 μL of ammoxetine solution was added to the A-side (donor chamber), and 1,200 μL of HBSS solution was added to the B-side (receiver chamber). The B→A transporter was evaluated by adding 1,200 μL of ammoxetine solution to the B-side (donor chamber) and 400 μL of HBSS solution to the A-side (receiver chamber). At 0 h, 50 μL of the solution was taken from the donor chamber, and aliquots of 50 μL were taken from the receiver chamber at 15, 30, 45, 60, 90, and 120-min time intervals. The collected aliquots were immediately replaced with equal volumes of fresh blank HBSS. Ammoxetine transport was studied at three concentrations: 0.2, 1, and 5 μg/mL, with each concentration evaluated in triplicate. […] Ammoxetine samples collected from the receiver chambers at different time points were mixed with 150 μL of acetonitrile/methanol (1:1, v/v) solution containing 50 ng/mL L-phencynonate (IS). The mixtures were then vortexed for 1 min and centrifuged for 10 min at 13,800×g. The supernatants were analyzed using an LC-MS-MS method.
# The apparent permeability coefficient ( Papp , cm/s) values for ammoxetine were determined using Equation 1: Papp=dQ/dt/A×C0 (1)
# Here, dQ/dt represents the amount of drug transported to the receiver chamber within a specific time period, A is the surface area of the cell monolayer (=0.33 cm^2), and C0 is the initial concentration of ammoxetine.
# In general, the involvement of a P-gp-mediated efflux mechanism was indicated if the efflux ratio ( ER ) value exceeded 1.5 ([Langthaler et al., 2024]). […]
# [2] = target: T1, CYP 2B6 (Homo sapiens, UniProt P20813); assay: CYP inhibition, cocktail-substrate method in HLM; assay type: in vitro ADME; conditions: probe bupropion
# T1 construct: 0.5 mg/mL HLM, 1 mmol/L NADPH, and a cocktail of 10 probe substrates for 9 CYP isoforms; tissue BD (Woburn, USA); host or cells: pooled human liver microsomes
# T1 sequence (P20813 1-491): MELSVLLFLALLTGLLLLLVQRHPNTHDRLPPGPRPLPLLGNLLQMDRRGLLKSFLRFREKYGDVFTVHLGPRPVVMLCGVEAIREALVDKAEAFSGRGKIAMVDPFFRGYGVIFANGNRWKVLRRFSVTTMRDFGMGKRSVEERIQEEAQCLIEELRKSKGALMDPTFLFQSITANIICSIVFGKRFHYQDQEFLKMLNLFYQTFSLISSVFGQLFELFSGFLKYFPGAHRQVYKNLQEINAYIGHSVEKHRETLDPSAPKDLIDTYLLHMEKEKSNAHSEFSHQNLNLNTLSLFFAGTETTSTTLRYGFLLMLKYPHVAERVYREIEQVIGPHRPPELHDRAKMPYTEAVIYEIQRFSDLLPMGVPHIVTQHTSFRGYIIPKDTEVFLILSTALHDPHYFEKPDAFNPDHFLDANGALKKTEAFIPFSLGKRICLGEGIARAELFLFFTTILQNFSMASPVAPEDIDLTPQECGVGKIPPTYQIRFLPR
# Experimental: (§1) To assess the CYP inhibition profiling of ammoxetine, a high-throughput assay based on the cocktail-substrate method was performed, as described in the literature ([Kim et al., 2005]; [Kozakai et al., 2014]). Microsomal incubations were conducted in triplicate for 30 min at 37°C in a reaction system (200 μL) consisting of […] potassium phosphate buffer (pH 7.4), 0.5 mg/mL HLM, 1 mmol/L NADPH, and a cocktail of 10 probe substrates for 9 CYP isoforms. The final concentration of each CYP-specific substrate was chosen to be close to the Michaelis-Menten constant (K m ) value of the respective substrate ([Kim et al., 2005]; [Lee et al., 2024]). For instance, phenacetin (CYP 1A2) was used at a concentration of 50 μmol/L, coumarin (CYP 2A6) at 5 μmol/L, bupropion (CYP 2B6) at 50 μmol/L, amodiaquine (CYP 2C8) at 5 μmol/L, tolbutamide (CYP 2C9) at 100 μmol/L, S-mephenytoin (CYP 2C19) at 100 μmol/L, dextromethorphan (CYP 2D6) at 5 μmol/L, chlorzoxazone (CYP 2E1) at 50 μmol/L, and testosterone and midazolam (CYP 3A4) at 50 μmol/L. Ammoxetine was evaluated at five concentrations: 0.1, 1, 10, 50, and 100 μmol/L. Additionally, a blank control without ammoxetine was included. The incubation was terminated by adding an equal volume of ice-cold acetonitrile/methanol (1:1, v/v) along with the IS, dexmedetomidine (1 ng/mL). After a 20-fold dilution, the mixture was centrifuged at 13,800×g for 10 min at 4°C. The supernatants were used to measure the levels of metabolites from the respective probe substrates using an LC-MS-MS method. The half-maximal inhibitory concentration (IC50) values were subsequently calculated.
# [3] = target: T2, CYP 2C8 (Homo sapiens, UniProt P10632); assay: CYP inhibition, cocktail-substrate method in HLM; assay type: in vitro ADME; conditions: probe amodiaquine
# T2 construct: 0.5 mg/mL HLM, 1 mmol/L NADPH, and a cocktail of 10 probe substrates for 9 CYP isoforms; tissue BD (Woburn, USA); host or cells: pooled human liver microsomes
# T2 sequence (P10632 1-490): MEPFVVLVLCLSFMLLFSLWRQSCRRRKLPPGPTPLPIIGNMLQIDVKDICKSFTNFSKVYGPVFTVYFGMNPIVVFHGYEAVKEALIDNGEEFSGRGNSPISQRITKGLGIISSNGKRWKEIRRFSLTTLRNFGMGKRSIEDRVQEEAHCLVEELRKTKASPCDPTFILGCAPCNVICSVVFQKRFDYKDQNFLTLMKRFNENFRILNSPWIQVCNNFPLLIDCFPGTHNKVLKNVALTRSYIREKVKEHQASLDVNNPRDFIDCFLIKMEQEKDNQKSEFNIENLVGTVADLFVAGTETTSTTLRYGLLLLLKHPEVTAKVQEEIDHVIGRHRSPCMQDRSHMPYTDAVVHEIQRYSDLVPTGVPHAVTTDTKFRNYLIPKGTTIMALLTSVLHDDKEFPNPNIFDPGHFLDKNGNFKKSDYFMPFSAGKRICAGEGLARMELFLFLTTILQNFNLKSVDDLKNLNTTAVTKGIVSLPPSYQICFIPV
# Experimental: as §1
# [4] = target: T3, CYP 2E1 (Homo sapiens, UniProt P05181); assay: CYP inhibition, cocktail-substrate method in HLM; assay type: in vitro ADME; conditions: probe chlorzoxazone
# T3 construct: 0.5 mg/mL HLM, 1 mmol/L NADPH, and a cocktail of 10 probe substrates for 9 CYP isoforms; tissue BD (Woburn, USA); host or cells: pooled human liver microsomes
# T3 sequence (P05181 whole entry, canonical isoform): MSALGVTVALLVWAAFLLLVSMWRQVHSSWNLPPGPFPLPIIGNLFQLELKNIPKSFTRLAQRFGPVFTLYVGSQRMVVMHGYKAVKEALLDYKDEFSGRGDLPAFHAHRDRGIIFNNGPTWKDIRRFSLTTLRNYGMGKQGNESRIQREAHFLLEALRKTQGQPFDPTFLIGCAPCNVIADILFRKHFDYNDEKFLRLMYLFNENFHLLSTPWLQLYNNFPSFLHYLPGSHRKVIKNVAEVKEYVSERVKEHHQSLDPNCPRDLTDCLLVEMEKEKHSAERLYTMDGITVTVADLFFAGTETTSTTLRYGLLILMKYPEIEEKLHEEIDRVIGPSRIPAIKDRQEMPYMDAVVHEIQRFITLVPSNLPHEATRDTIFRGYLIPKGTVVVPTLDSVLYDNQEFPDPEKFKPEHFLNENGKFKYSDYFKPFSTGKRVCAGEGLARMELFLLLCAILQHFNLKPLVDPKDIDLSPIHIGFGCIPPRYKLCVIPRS
# Experimental: as §1
structure (smiles),measurement,setting,value
CNCC[C@H](Oc1cccc2c1OCO2)c1cccs1 [ammoxetine],P-gp substrate status,[1],likely a substrate of P-gp
same,IC50,[2],> 100 µM
same,IC50,[3],> 100 µM
same,IC50,[4],> 100 µM
